Source: paper PMC4764975, “Probing the enzyme kinetics, allosteric modulation and activation of α1- and α2-subunit-containing AMP-activated protein kinase (AMPK) heterotrimeric complexes by pharmacological and physiological activators” (Biochemical Journal, 2016)
Read-outs that look alike come from different tables or passages of the source. One block for each compound: values may come before it.

What was measured:
[1] = target: T1, AMPK α1-kinase domain (α1-KD) (Homo sapiens, UniProt Q13131); assay: Phosphatase (PP2Aα) sensitivity, pThr172/174 dephosphorylation; format: biochemical; settings: PP2Aα concentration for half-maximal dephosphorylation, absence of activator, read-out: PP2Aα sensitivity dEC50
T1 construct: AMPK α1-kinase domain (α1-KD; residues 18–293); 6X-His (N); made in house; host or cells: E. coli BL21-CodonPlus (DE3)-RIPL (pET28a)
Procedure: (§1) Test compound was previously diluted in half-log increments, starting at 40 μM in 100% DMSO, diluted 10-fold in assay buffer and dispensed into a microtitre plate. After 15 min at room temperature, phosphatase was added to the mixture and the reaction was allowed to proceed for 60 min at room temperature. Reactions were quenched by the addition of okadaic acid, and transferred to PVDF membrane using the slot-blot apparatus and subjected to immunoblotting. Phosphatase sensitivity was similarly assessed by subjecting pAMPK to a phosphatase (PP2Aα) treatment using various concentrations and incubation times. The concentration of phosphatase was expressed as nmol of PP2Aα per minute per nmol of pAMPK in the reaction.
(§2) The membrane was blocked with Western Blot Blocking Buffer Reagent (Li-Cor) for 3–4 h at room temperature. The blot was probed using a rabbit α-pThr^172/174-specific antibody (Cell Signaling 40H9) at 1:500 dilution for 2 h and washed three times using 1 × PBS/0.1% Tween 20 (42°C pre-warmed wash buffer). Following the wash step, goat anti-rabbit 800CW (Rockland) at 1:10000 dilution was used as a secondary antibody. Blots were visualized using the Li-Cor Odyssey infrared imaging system and signal quantification was performed using the Odyssey software. The pEC50 values (estimated concentration of activator required for half-maximal protection of pThr^172/174 from PP2α) were calculated using GraphPad Prism software.
(§3) We then examined the sensitivity of phospho-α-Thr^172/174 (pThr^172/174) for dephosphorylation by phosphatase (PP2Aα) in the absence of allosteric modulators. The extent of dephosphorylation was measured using an antibody specific to α-pThr^172/174 as described in ‘Experimental’ section. […] The presence of the regulatory subunits (β and γ) leads to increased protection of pAMPK from dephosphorylation compared with the kinase domains alone (Figure 6). […] The dEC50 values for α2-containing isoforms were 40, 57 and 41 nM for α2β1γ1, α2β2γ1 and α2β2γ3 respectively; 13- to 18-fold right-shifted compared with that for isolated α2-kinase domain (Figure 6).
(§4) Figure 6 Phosphatase (PP2Aα) sensitivity of AMPK isoforms Effect of phosphatase (PP2Aα) on pThr^172/174 dephosphorylation of AMPK isoforms in the absence of activators is shown. Data are mean (n=2), and curves were generated using best-fit values.

[2] = target: T2, AMPK α2-kinase domain (α2-KD) (Homo sapiens, UniProt P54646); assay: as above; format: biochemical; settings: PP2Aα concentration for half-maximal dephosphorylation, absence of activator, read-out: PP2Aα sensitivity dEC50
T2 construct: α2-kinase domain (α2-KD; residues 7–282); 6X-His (N); made in house; host or cells: E. coli BL21-CodonPlus (DE3)-RIPL (pET28a)
Procedure: as §1, §2, §3, §4

[3] = target: T3, AMPK α2β2γ3 (Homo sapiens, UniProt O43741+P54646+Q9UGI9); assay: as above; format: biochemical; settings: PP2Aα concentration for half-maximal dephosphorylation, absence of activator, read-out: PP2Aα sensitivity dEC50
T3 construct: Recombinant full-length AMPK heterotrimeric complexes α1β1γ1, α1β2γ1, α1β2γ3, α2β1γ1, α2β2γ1 and α2β2γ3 were cloned; 6X-His (N); made in house; host or cells: E. coli BL21-CodonPlus (DE3)-RIPL
Procedure: as §1, §2, §3, §4

[4] = target: T4, AMPK α2β1γ1 (Homo sapiens, UniProt P54619+P54646+Q9Y478); assay: as above; format: biochemical; settings: PP2Aα concentration for half-maximal dephosphorylation, absence of activator, read-out: PP2Aα sensitivity dEC50
T4 construct: Recombinant full-length AMPK heterotrimeric complexes α1β1γ1, α1β2γ1, α1β2γ3, α2β1γ1, α2β2γ1 and α2β2γ3 were cloned; 6X-His (N); made in house; host or cells: E. coli BL21-CodonPlus (DE3)-RIPL
Procedure: as §1, §2, §3, §4

[5] = target: T5, AMPK α1β2γ3 (Homo sapiens, UniProt O43741+Q13131+Q9UGI9); assay: as above; format: biochemical; settings: PP2Aα concentration for half-maximal dephosphorylation, absence of activator, read-out: PP2Aα sensitivity dEC50
T5 construct: Recombinant full-length AMPK heterotrimeric complexes α1β1γ1, α1β2γ1, α1β2γ3, α2β1γ1, α2β2γ1 and α2β2γ3 were cloned; 6X-His (N); made in house; host or cells: E. coli BL21-CodonPlus (DE3)-RIPL
Procedure: as §1, §2, §3, §4

[6] = target: T6, AMPK α2β2γ1 (Homo sapiens, UniProt O43741+P54619+P54646); assay: as above; format: biochemical; settings: PP2Aα concentration for half-maximal dephosphorylation, absence of activator, read-out: PP2Aα sensitivity dEC50
T6 construct: Recombinant full-length AMPK heterotrimeric complexes α1β1γ1, α1β2γ1, α1β2γ3, α2β1γ1, α2β2γ1 and α2β2γ3 were cloned; 6X-His (N); made in house; host or cells: E. coli BL21-CodonPlus (DE3)-RIPL
Procedure: as §1, §2, §3, §4

[7] = target: full-length, pAMPK; design: method as in PMID 21399626; settings: presence of Mg2+, cited from earlier work
[8] = target: T7, BAP-tagged AMPK α2β2γ1 (Homo sapiens, UniProt O43741+P54619+P54646); assay: SPR direct binding (Biacore)
T7 construct: Recombinant full-length AMPK heterotrimeric complexes α1β1γ1, α1β2γ1, α1β2γ3, α2β1γ1, α2β2γ1 and α2β2γ3 were cloned into a tricistronic vector system; 6X-His (N); made in house; host or cells: E. coli BL21-CodonPlus (DE3)-RIPL, co-expressed with BirA
Procedure: (§5) SPR experiments were performed on a Biacore™ 3000 instrument (GE Healthcare). BAP-tagged AMPK isoform (α1β1γ1, α1β2γ1, α2β2γ1, α2β2γ3) was captured on to a streptavidin sensor chip to levels ranging from 4000 to 6000 RU. […] Binding responses were processed using Scrubber 2 (BioLogic Software Pty Ltd) to zero, x-align, double reference and corrected for excluded volume effect of DMSO in the data. […] The compound was injected at a flow rate of 50 μl/min with total contact time of 120 s and dissociation time of 600 s. Rate parameters (kon, koff) and corresponding dissociation constant(KD=koff/kon) were determined by globally fitting all of the experimental data to a simple 1:1 interaction model using Biaeval software (GE Healthcare). To determine nt binding, 10 concentrations with 2-fold dilutions were tested in duplicate. The highest concentration tested was 2 mM. The compound was injected at a flow rate of 50 μl/min with total contact time of 120 s and dissociation time of 300 s. Equilibrium dissociation constant (KD) was determined using a steady-state affinity algorithm available within Scrubber.
(§6) We then compared the binding of nts (AMP, ADP and ATP) to α1β1γ1, α1β2γ1, α2β2γ1 and α2β2γ3 isoforms in the presence and absence of Mg^2+ and Stau, using SPR technique. […]

[9] = target: T8, BAP-tagged AMPK α1β1γ1 (Homo sapiens, UniProt P54619+Q13131+Q9Y478); assay: SPR direct binding (Biacore)
T8 construct: Recombinant full-length AMPK heterotrimeric complexes α1β1γ1, α1β2γ1, α1β2γ3, α2β1γ1, α2β2γ1 and α2β2γ3 were cloned; 6X-His (N); AviTag (BAP); made in house; host or cells: E. coli (co-expressed with BirA)
Procedure: as §5, §6

[10] = target: T3, AMPK α2β2γ3; assay: Steady-state kinetics, radiometric SAMS assay; format: biochemical; settings: absence of AMP, SAMS fixed at ~10-fold Km, read-out: Km ATP
Procedure: (§7) The kinase activity of pAMPK was measured via AMPK-mediated incorporation of ^33phosphate from [^33P]ATP into the synthetic peptide called SAMS [31] using the radiometric assay as described before. […] Assay linearity was ensured by determining that <30% substrate was depleted for all concentrations tested. The Km values were obtained in the absence of AMP in the reaction. Data were fitted by non-linear regression to the Michaelis–Menten equation using GraphPad prism to obtain the kinetic parameters. The specific radioactivity of each isoform was determined at saturating concentrations of each substrate.

[11] = target: T9, AMPK α1β1γ1 (Homo sapiens, UniProt P54619+Q13131+Q9Y478); assay: Steady-state kinetics, radiometric SAMS assay; format: biochemical; settings: absence of AMP, SAMS fixed at ~10-fold Km, read-out: Km ATP
T9 construct: Recombinant full-length AMPK heterotrimeric complexes α1β1γ1, α1β2γ1, α1β2γ3, α2β1γ1, α2β2γ1 and α2β2γ3 were cloned; 6X-His (N); made in house; host or cells: E. coli BL21-CodonPlus (DE3)-RIPL
Procedure: as §7

[12] = target: T4, AMPK α2β1γ1; assay: Steady-state kinetics, radiometric SAMS assay; format: biochemical; settings: absence of AMP, SAMS fixed at ~10-fold Km, read-out: Km ATP
Procedure: as §7

[13] = target: T10, AMPK α1β2γ1 (Homo sapiens, UniProt O43741+P54619+Q13131); assay: Steady-state kinetics, radiometric SAMS assay; format: biochemical; settings: absence of AMP, SAMS fixed at ~10-fold Km, read-out: Km ATP
T10 construct: Recombinant full-length AMPK heterotrimeric complexes α1β1γ1, α1β2γ1, α1β2γ3, α2β1γ1, α2β2γ1 and α2β2γ3 were cloned; 6X-His (N); made in house; host or cells: E. coli BL21-CodonPlus (DE3)-RIPL
Procedure: as §7

[14] = target: T5, AMPK α1β2γ3; assay: Steady-state kinetics, radiometric SAMS assay; format: biochemical; settings: absence of AMP, SAMS fixed at ~10-fold Km, read-out: Km ATP
Procedure: as §7

[15] = target: T6, AMPK α2β2γ1; assay: Steady-state kinetics, radiometric SAMS assay; format: biochemical; settings: absence of AMP, SAMS fixed at ~10-fold Km, read-out: Km ATP
Procedure: as §7

[16] = target: T11, BAP-tagged AMPK α1β2γ1 (Homo sapiens, UniProt O43741+P54619+Q13131); assay: SPR direct binding (Biacore)
T11 construct: Recombinant full-length AMPK heterotrimeric complexes α1β1γ1, α1β2γ1, α1β2γ3, α2β1γ1, α2β2γ1 and α2β2γ3 were cloned into a tricistronic vector system; 6X-His (N); made in house; host or cells: E. coli BL21-CodonPlus (DE3)-RIPL, co-expressed with BirA
Procedure: as §5
(§8) We then compared the binding of nts (AMP, ADP and ATP) to α1β1γ1, α1β2γ1, α2β2γ1 and α2β2γ3 isoforms in the presence and absence of Mg^2+ and Stau, using SPR technique.

[17] = target: T12, BAP-tagged AMPK α2β2γ3 (Homo sapiens, UniProt O43741+P54646+Q9UGI9); assay: SPR direct binding (Biacore)
T12 construct: Recombinant full-length AMPK heterotrimeric complexes α1β1γ1, α1β2γ1, α1β2γ3, α2β1γ1, α2β2γ1 and α2β2γ3 were cloned into a tricistronic vector system; 6X-His (N); made in house; host or cells: E. coli BL21-CodonPlus (DE3)-RIPL, co-expressed with BirA
Procedure: as §5, §8

[18] = presence of Mg2+ and 25 nM Stau, cell spans KD1 and KD2, read-out: KD (single measurable binding affinity)
[19] = presence of Mg2+, cell spans KD1 and KD2, read-out: KD (single measurable binding affinity)
[20] = tighter site, absence of Mg2+ and Stau, read-out: KD1
[21] = weaker site, absence of Mg2+ and Stau, read-out: KD2

T8 sequence (Q13131 whole entry): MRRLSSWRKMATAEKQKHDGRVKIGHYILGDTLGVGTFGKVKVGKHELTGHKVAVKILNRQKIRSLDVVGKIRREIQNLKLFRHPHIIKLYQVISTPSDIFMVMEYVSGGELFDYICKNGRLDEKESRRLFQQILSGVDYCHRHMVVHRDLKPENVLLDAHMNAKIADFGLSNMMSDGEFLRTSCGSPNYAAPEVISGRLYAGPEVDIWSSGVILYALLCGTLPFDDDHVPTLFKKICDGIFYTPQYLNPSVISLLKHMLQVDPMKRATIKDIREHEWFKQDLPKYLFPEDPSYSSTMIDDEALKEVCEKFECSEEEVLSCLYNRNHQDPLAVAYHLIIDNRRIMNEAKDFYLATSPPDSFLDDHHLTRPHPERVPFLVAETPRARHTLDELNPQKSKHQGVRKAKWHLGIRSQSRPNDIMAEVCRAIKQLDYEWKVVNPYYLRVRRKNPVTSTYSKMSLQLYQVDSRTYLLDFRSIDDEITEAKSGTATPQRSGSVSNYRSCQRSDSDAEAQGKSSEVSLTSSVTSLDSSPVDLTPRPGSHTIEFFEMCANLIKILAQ
T8 sequence (Q9Y478 whole entry): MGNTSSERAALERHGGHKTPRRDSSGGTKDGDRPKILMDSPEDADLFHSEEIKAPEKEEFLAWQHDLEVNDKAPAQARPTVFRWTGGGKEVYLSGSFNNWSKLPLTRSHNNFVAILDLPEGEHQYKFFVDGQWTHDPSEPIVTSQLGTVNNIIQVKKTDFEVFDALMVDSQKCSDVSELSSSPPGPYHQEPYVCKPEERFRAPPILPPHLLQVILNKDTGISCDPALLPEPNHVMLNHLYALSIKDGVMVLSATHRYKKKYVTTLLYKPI
T8 sequence (P54619 whole entry): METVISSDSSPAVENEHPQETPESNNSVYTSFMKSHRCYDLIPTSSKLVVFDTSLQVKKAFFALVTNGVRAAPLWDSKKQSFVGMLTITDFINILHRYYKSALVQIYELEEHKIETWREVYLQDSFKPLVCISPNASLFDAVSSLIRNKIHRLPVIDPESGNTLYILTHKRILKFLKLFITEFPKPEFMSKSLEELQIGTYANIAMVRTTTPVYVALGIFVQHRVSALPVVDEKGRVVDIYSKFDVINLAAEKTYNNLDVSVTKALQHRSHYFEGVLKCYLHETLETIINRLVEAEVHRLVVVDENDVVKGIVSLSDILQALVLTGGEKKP
T11 sequence (Q13131 whole entry): as the sequence (Q13131 whole entry) above
T11 sequence (O43741 whole entry): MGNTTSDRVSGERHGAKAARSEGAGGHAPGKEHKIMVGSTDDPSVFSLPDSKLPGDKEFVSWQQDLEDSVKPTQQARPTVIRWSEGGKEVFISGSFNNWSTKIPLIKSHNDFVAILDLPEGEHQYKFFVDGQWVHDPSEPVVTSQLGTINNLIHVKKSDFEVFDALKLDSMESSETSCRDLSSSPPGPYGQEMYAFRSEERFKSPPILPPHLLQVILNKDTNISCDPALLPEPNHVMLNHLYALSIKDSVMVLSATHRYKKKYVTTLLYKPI
T11 sequence (P54619 whole entry): as the sequence (P54619 whole entry) above
T7 sequence (P54646 whole entry): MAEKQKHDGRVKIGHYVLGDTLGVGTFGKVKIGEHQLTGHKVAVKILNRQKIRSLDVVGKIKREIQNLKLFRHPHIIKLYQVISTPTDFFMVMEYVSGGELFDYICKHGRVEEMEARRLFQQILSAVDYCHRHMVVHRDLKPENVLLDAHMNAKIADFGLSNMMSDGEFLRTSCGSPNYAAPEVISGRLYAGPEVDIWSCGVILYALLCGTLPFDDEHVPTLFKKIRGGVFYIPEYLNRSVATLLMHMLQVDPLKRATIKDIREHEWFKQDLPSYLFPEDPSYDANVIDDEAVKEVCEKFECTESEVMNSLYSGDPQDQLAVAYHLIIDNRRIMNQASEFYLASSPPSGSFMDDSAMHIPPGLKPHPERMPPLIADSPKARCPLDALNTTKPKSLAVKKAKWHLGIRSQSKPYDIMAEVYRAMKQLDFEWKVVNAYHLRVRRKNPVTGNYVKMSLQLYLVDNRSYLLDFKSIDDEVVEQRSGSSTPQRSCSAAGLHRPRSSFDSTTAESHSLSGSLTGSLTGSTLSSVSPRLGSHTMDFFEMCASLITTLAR
T7 sequence (O43741 whole entry): as the sequence (O43741 whole entry) above
T7 sequence (P54619 whole entry): as the sequence (P54619 whole entry) above
T12 sequence (P54646 whole entry): as the sequence (P54646 whole entry) above
T12 sequence (O43741 whole entry): as the sequence (O43741 whole entry) above
T12 sequence (Q9UGI9 whole entry): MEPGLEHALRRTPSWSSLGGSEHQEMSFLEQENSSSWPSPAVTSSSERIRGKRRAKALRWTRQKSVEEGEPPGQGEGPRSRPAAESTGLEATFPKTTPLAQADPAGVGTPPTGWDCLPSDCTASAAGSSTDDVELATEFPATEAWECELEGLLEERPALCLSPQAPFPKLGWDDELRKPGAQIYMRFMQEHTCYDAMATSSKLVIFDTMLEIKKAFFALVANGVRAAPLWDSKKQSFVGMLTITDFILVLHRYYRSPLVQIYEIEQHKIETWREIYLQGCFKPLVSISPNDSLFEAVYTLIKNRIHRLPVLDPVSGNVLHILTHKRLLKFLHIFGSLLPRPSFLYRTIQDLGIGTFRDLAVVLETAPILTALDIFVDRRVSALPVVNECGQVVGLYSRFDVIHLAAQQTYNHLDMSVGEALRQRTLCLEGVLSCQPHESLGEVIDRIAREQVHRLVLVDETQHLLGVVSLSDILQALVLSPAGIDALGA
T5 sequence (Q13131 whole entry): as the sequence (Q13131 whole entry) above
T5 sequence (O43741 whole entry): as the sequence (O43741 whole entry) above
T5 sequence (Q9UGI9 whole entry): as the sequence (Q9UGI9 whole entry) above
T4 sequence (P54646 whole entry): as the sequence (P54646 whole entry) above
T4 sequence (Q9Y478 whole entry): as the sequence (Q9Y478 whole entry) above
T4 sequence (P54619 whole entry): as the sequence (P54619 whole entry) above
T3 sequence (P54646 whole entry): as the sequence (P54646 whole entry) above
T3 sequence (O43741 whole entry): as the sequence (O43741 whole entry) above
T3 sequence (Q9UGI9 whole entry): as the sequence (Q9UGI9 whole entry) above
T6 sequence (P54646 whole entry): as the sequence (P54646 whole entry) above
T6 sequence (O43741 whole entry): as the sequence (O43741 whole entry) above
T6 sequence (P54619 whole entry): as the sequence (P54619 whole entry) above
T10 sequence (Q13131 whole entry): as the sequence (Q13131 whole entry) above
T10 sequence (O43741 whole entry): as the sequence (O43741 whole entry) above
T10 sequence (P54619 whole entry): as the sequence (P54619 whole entry) above
T9 sequence (Q13131 whole entry): as the sequence (Q13131 whole entry) above
T9 sequence (Q9Y478 whole entry): as the sequence (Q9Y478 whole entry) above
T9 sequence (P54619 whole entry): as the sequence (P54619 whole entry) above
T1 sequence (Q13131 18-293): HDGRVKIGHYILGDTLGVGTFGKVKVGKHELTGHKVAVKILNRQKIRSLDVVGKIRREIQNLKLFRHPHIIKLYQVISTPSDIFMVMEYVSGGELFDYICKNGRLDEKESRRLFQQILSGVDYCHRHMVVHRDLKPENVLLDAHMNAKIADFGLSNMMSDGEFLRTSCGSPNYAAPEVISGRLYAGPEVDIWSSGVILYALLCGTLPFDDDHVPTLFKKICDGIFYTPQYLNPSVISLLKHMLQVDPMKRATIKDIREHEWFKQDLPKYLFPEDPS
T2 sequence (P54646 7-282): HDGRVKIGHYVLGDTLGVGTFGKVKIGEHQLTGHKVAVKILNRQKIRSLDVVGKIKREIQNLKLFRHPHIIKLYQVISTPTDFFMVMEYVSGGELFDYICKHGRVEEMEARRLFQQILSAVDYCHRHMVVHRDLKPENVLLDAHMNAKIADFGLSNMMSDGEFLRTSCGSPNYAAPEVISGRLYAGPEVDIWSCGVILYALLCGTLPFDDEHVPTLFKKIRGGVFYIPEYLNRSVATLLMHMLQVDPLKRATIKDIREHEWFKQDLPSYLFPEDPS

- EC50 [1]: 0.0032 µM
- EC50 [2]: 0.0013 µM
- EC50 [3]: 0.041 µM
- EC50 [4]: 0.04 µM
- EC50 [5]: 0.441 µM
- EC50 [6]: 0.057 µM
Compound: PP2Aα: Human recombinant protein phosphatase 2Aα catalytic subunit expressed in insect cells

Compound: Nc1ncnc2c1ncn2[C@@H]1O[C@H](COP(=O)(O)OP(=O)(O)OP(=O)(O)O)[C@@H](O)[C@H]1O [ATP]
- Kd ([7]; read-out: equilibrium dissociation constant, stronger binding site): 18 µM
- Kd ([7]; read-out: equilibrium dissociation constant, weaker binding site): 230 µM
- Kd [8, 18]: 133 ± 4 µM
- Kd [8, 19]: 95 ± 1 µM
- Kd [8, 20]: 0.92 ± 0.03 µM
- Kd [8, 21]: 2900 ± 200 µM
- Kd [9, 18]: 300 ± 10 µM
- Kd [9, 19]: 130 ± 1 µM
- Kd [9, 20]: 1.35 ± 0.02 µM
- Kd [9, 21]: 2260 ± 90 µM
- Km [10]: 417 ± 39 µM
- Km [11]: 26 ± 5.6 µM
- Km [12]: 31.4 ± 9.3 µM
- Km [13]: 45.1 ± 5.8 µM
- Km [14]: 333 ± 65 µM
- Km [15]: 48 ± 5 µM
- Kd [16, 18]: 400 ± 20 µM
- Kd [16, 19]: 95 ± 1 µM
- Kd [16, 20]: 1.1 ± 0.04 µM
- Kd [16, 21]: 3400 ± 300 µM
- Kd [17, 18]: 540 ± 20 µM
- Kd [17, 19]: 277 ± 4 µM
- Kd [17, 20]: 7.6 ± 0.6 µM
- Kd [17, 21]: 3500 ± 300 µM
